In patent US20240083861A1, “HSD17B13 INHIBITORS AND USES THEREOF” (FL2022-001, Inc., priority 2020, published 2024) one finds IC50 and inhibition data, which are given here for 28 compounds.

SMILES strings stand for the structures. Some results are limits rather than exact numbers.

The first assay has as its target T1, Recombinant human HSD17B13 enzyme (Homo sapiens, UniProt Q7Z5P4).
T1 sequence (Q7Z5P4 20-300): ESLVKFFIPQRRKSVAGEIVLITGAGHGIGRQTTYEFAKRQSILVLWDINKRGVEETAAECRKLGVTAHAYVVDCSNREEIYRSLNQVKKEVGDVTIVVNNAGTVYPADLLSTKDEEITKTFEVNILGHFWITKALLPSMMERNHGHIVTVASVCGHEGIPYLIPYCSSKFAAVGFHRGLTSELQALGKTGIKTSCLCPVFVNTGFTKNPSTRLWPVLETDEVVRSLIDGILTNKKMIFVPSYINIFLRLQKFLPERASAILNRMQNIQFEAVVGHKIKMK
Kind of assay: HSD17b13 NAD(P)H-Glo biochemical assay. The settings on record: 50 uM estradiol, 1 mM NAD+, NAD(P)H-Glo luminescence; read-out: HSD17β13 IC50. The procedure, abridged:
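Recombinant human HSD17B13 in 20 mM Tris pH7.4 with 0.002% Tween-20 and 0.02% BSA was preincubated with inhibitor for 20 minutes at RT. The reaction ran 3 hours at 37° C with 50 uM estradiol and 1 mM NAD+ (final). NADH formed was detected by NAD(P)H-Glo luminescence after 1 hour at RT.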
What is called IC50 is the point on the concentration scale where inhibition reaches its midpoint. Regarding `Cn1nc(-c2cc(C(F)(F)F)c(F)c(O)c2F)c2cnc(N3CCOCC3(C)C)nc21` [Compound 18.102, 3-(6-(3,3-Dimethylmorpholino)-1-methyl-1H-pyrazolo[3,4-d]pyrimidin-3-y1)-2,6-difluoro-5-(trifluoromethyl)phenol], the IC50 is below 100 nM.
Same read-out and setting: to `Cn1nc(-c2cc(C(F)(F)F)c(F)c(O)c2F)c2cc(F)c(N3CCCOCC34CC4)nc21` [Compound 9.105, 2,6-Difluoro-3-(5-fluoro-1-methyl-6-(8-oxa-4-azaspiro[2.6]nonan-4-yl)-1H-pyrazolo[3,4-b]pyridin-3-yl)-5-(trifluoromethyl)phenol] belongs below 100 nM; to `Cn1nc(-c2cc(C(F)(F)F)c(F)c(O)c2F)c2cnc(N3CCCOCC34CC4)cc21` [Compound 9.69, 2,6-Difluoro-3-(1-methyl-6-(8-oxa-4-azaspiro[2.6]nonan-4-yl)-1H-pyrazolo[4,3-c]pyridin-3-yl)-5-(trifluoromethyl)phenol], below 100 nM.
Consider `CS(=O)(=O)N1CCC(c2cc3[nH]nc(-c4cc(C(F)(F)F)cc(O)c4F)c3cn2)CC1` [Compound 13, 2-Fluoro-3-(6-(1-(methylsulfonyl)piperidin-4-yl)-1H-pyrazolo[4,3-c]pyridin-3-yl)-5-(trifluoromethyl)phenol], for which the IC50 was in the range of 100 to 1000 nM.
For `Cn1nc(-c2cc(C(F)(F)F)c(F)c(O)c2F)c2cnc(N3CCNC(=O)C3)cc21` [Compound 9.92, 4-(3-(2,4-Difluoro-3-hydroxy-5-(trifluoromethyl)phenyl)-1-methyl-1H-pyrazolo[4,3-c]pyridin-6-yl)piperazin-2-one], the IC50 fell in the range of 100 to 1000 nM.
On to `Cn1nc(-c2cc(C(F)(F)F)c(F)c(O)c2F)c2cnc(N3CCNCC3)nc21` [Compound 18.75, 2,6-Difluoro-3-(1-methyl-6-(piperazin-1-y1)-1H-pyrazolo[3,4-d]pyrimidin-3-y1)-5-(trifluoromethyl)phenol], for which the IC50 was in the range of 100 to 1000 nM.
Consider `Cn1nc(-c2cc(C(F)(F)F)c(F)c(O)c2F)c2cnc(N3CCC(O)(c4ccncc4)CC3)nc21` [Compound 18.97, 1-(3-(2,4-Difluoro-3-hydroxy-5-(trifluoromethyl)phenyl)-1-methyl-1H-pyrazolo[3,4-d]pyrimidin-6-yl)-4-(pyridin-4-yl)piperidin-4-ol], for which the half-maximal inhibitory concentration (IC50) was below 100 nM.
On the same count and under the same terms, as for `Cn1nc(-c2cc(C(F)(F)F)c(F)c(O)c2F)c2cnc(N3CCOC(C)(c4ccccc4)C3)nc21` (stereo not shown) [Compound 18.119, 2,6-Difluoro-3-(1-methyl-6-(2-methyl-2-phenylmorpholino)-1H-pyrazolo[3,4-d]pyrimidin-3-y1)-5-(trifluoromethyl)phenol], the figure is below 100 nM; as for `CN1CCC2(CCN(c3ncc4c(-c5cc(C(F)(F)F)c(F)c(O)c5F)nn(C)c4n3)CC2)C1=O` [Compound 18.08, 8-(3-(2,4-Difluoro-3-hydroxy-5-(trifluoromethyl)phenyl)-1-methyl-1H-pyrazolo[3,4-d]pyrimidin-6-yl)-2-methyl-2,8-diazaspiro[4.5]decan-1-one], below 100 nM; as for `O=C(NC1CCCCC1)c1ccc2oc(-c3cc(O)c(F)c(F)c3)nc2c1` [Compound 1.03, N-Cyclohexyl-2-(3,4-difluoro-5-hydroxyphenyl)benzo[d]oxazole-5-carboxamide], below 100 nM.
Same read-out and setting: to `Cn1nc(-c2cc(C(F)(F)F)c(F)c(O)c2F)c2c(F)cc(N3CCOCC34CC4)cc21` [Compound 9.118, 2,6-Difluoro-3-(4-fluoro-1-methyl-6-(7-oxa-4-azaspiro[2.5]octan-4-yl)-1H-indazol-3-yl)-5-(trifluoromethyl)phenol] belongs below 100 nM; to `Cn1nc(-c2cc(C(F)(F)F)c(F)c(O)c2F)c2cnc(N(Cc3ccccc3)C3CC3)nc21` [Compound 18.117, 3-(6-(Benzyl(cyclopropyl)amino)-1-methyl-1H-pyrazolo[3,4-d]pyrimidin-3-y1)-2,6-difluoro-5-(trifluoromethyl)phenol], below 100 nM.
On the same count and under the same terms, as for `CN(c1nc2c(cc1F)c(-c1cc(C(F)(F)F)c(F)c(O)c1F)nn2C)C1CCOCC1` [Compound 9.103, 2,6-Difluoro-3-(5-fluoro-1-methyl-6-(methyl(tetrahydro-2H-pyran-4-yl)amino)-1H-pyrazolo[3,4-b]pyridin-3-yl)-5-(trifluoromethyl)phenol], the figure is below 100 nM; as for `CN(C)C1CCCN(c2ncc3c(-c4cc(C(F)(F)F)c(F)c(O)c4F)nn(C)c3n2)C1` (stereo not shown) [Compound 18.45, 3-(6-(3-(Dimethylamino)piperidin-1-y1)-1-methyl-1H-pyrazolo[3,4-d]pyrimidin-3-y1)-2,6-difluoro-5-(trifluoromethyl)phenol], 100 to 1000 nM.
Consider `CN1CCN(c2ncc3c(-c4cc(C(F)(F)F)c(F)c(O)c4F)nn(C)c3n2)C(c2ccccc2)C1` (stereo not shown) [Compound 18.53, 2,6-Difluoro-3-(1-methyl-6-(4-methyl-2-phenylpiperazin-1-yl)-1H-pyrazolo[3,4-d]pyrimidin-3-yl)-5-(trifluoromethyl)phenol], for which the IC50 was below 100 nM.
Still for that read-out and setting: to `Cn1nc(-c2cc(C(F)(F)F)c(F)c(O)c2F)c2cnc(N3CCNC4(CC4)C3)nc21` [Compound 18.18, 2,6-Difluoro-3-(1-methyl-6-(4,7-diazaspiro[2.5]octan-7-y1)-1H-pyrazolo[3,4-d]pyrimidin-3-y1)-5-(trifluoromethyl)phenol] belongs below 100 nM; to `Cn1nc(-c2cc(C(F)(F)F)c(F)c(O)c2F)c2cnc(N3CCN(S(C)(=O)=O)C4(CCOCC4)C3)nc21` [Compound 18.85, 2,6-Difluoro-3-(1-methyl-6-(1-(methylsulfony1)-9-oxa-1,4-diazaspiro[5.5]undecan-4-y1)-1H-pyrazolo[3,4-d]pyrimidin-3-y1)-5-(trifluoromethyl)phenol], below 100 nM; to `Cn1nc(-c2cc(C(F)(F)F)c(F)c(O)c2F)c2cc(F)c(N3CCN(S(C)(=O)=O)CC34CC4)cc21` [Compound 9.117, 2,6-Difluoro-3-(5-fluoro-1-methyl-6-(7-(methylsulfonyl)-4,7-diazaspiro[2.5]octan-4-yl)-1H-indazol-3-yl)-5-(trifluoromethyl)phenol], below 100 nM.
Still for that read-out and setting: to `CS(=O)(=O)N1CCN(c2ccc3c(-c4cc(O)c(F)c(C(F)(F)F)c4)n[nH]c3c2)CC1` [Compound 9.23, 2-Fluoro-5-(6-(4-(methylsulfonyl)piperazin-1-yl)-1H-indazol-3-yl)-3-(trifluoromethyl)phenol] belongs 100 to 1000 nM; to `Cn1nc(-c2cc(C(F)(F)F)c(F)c(O)c2F)c2cnc(N3CCN(S(C)(=O)=O)CC34CC4)cc21` [Compound 9.74, 2,6-Difluoro-3-(1-methyl-6-(7-(methylsulfonyl)-4,7-diazaspiro[2.5]octan-4-yl)-1H-pyrazolo[4,3-c]pyridin-3-yl)-5-(trifluoromethyl)phenol], below 100 nM.
On the same count and under the same terms, as for `CN(C)C(=O)N1CCN(c2ncc3c(-c4cc(C(F)(F)F)c(F)c(O)c4F)nn(C)c3n2)CC12CCC2` [Compound 20.02, 8-(3-(2,4-Difluoro-3-hydroxy-5-(trifluoromethyl)phenyl)-1-methyl-1H-pyrazolo[3,4-d]pyrimidin-6-yl)-N,N-dimethy1-5,8-diazaspiro[3.5]nonane-5-carboxamide], the figure is below 100 nM; as for `Cn1nc(-c2cc(C(F)(F)F)c(F)c(O)c2F)c2cnc(N3CC4CCC3CC4)cc21` [Compound 9.42, 3-(6-(2-Azabicyclo[2.2.2]octan-2-yl)-1-methyl-1H-pyrazolo[4,3-c]pyridin-3-yl)-2,6-difluoro-5-(trifluoromethyl)phenol], below 100 nM; as for `C[C@@H]1CN(C(=O)Nc2ccccc2)CCN1c1cc2c(cn1)c(-c1cc(C(F)(F)F)c(F)c(O)c1F)nn2C` [Compound 21, (R)-4-(3-(2,4-Difluoro-3-hydroxy-5-(trifluoromethyl)phenyl)-1-methyl-1H-pyrazolo[4,3-c]pyridin-6-yl)-3-methyl-N-phenylpiperazine-1-carboxamide], below 100 nM.
In the case of `CCn1nc(-c2cc(C(F)(F)F)c(F)c(O)c2F)c2cnc(N3CCOCC34CC4)cc21` [Compound 9.37, 3-(1-Ethyl-6-(7-oxa-4-azaspiro[2.5]octan-4-yl)-1H-pyrazolo[4,3-c]pyridin-3-yl)-2,6-difluoro-5-(trifluoromethyl)phenol], the IC50 was below 100 nM.
Still for that read-out and setting: as for `Cn1nc(-c2cc(O)cc3ccccc23)c2cnc(N3CCN(S(C)(=O)=O)C4(CC4)C3)nc21` [Compound 12.09, 4-(1-Methyl-6-(4-(methylsulfonyl)-4,7-diazaspiro[2.5]octan-7-yl)-1H-pyrazolo[3,4-d]pyrimidin-3-yl)naphthalen-2-ol], the figure is 1000 to 30000 nM.
On the same count and under the same terms, to `CN(c1cc2c(cn1)c(-c1cc(C(F)(F)F)c(F)c(O)c1F)nn2C)C1CCCOC1` (stereo not shown) [Compound 9.44, 2,6-Difluoro-3-(1-methyl-6-(methyl(tetrahydro-2H-pyran-3-yl)amino)-1H-pyrazolo[4,3-c]pyridin-3-yl)-5-(trifluoromethyl)phenol] belongs below 100 nM; to `COC1(C)CN(c2ncc3c(-c4cc(C(F)(F)F)c(F)c(O)c4F)nn(C)c3n2)C1` [Compound 9.13, 2,6-Difluoro-3-(6-(3-methoxy-3-methylazetidin-1-yl)-1-methyl-1H-pyrazolo[3,4-d]pyrimidin-3-yl)-5-(trifluoromethyl)phenol], below 100 nM.

Staying with this assay, now noted: at 10 uM compound; read-out: HSD17β13 % inhibition at 10 uM.
In general, inhibition refers to the change of the read-out against control, counted positive when it falls. Consider `Cn1nc(-c2cc(C(F)(F)F)c(F)c(O)c2F)c2cnc(N3CCCC34COC4)cc21` [Compound 9.140, 2,6-Difluoro-3-(1-methyl-6-(2-oxa-5-azaspiro[3.4]octan-5-yl)-1H-pyrazolo[4,3-c]pyridin-3-yl)-5-(trifluoromethyl)phenol], for which the inhibition at 10 µM stood at 35%.
